# Data published in patent US9598440B2, “Inhibitors of IRAK4 activity” (MERCK SHARP & DOHME CORP., priority 2012, dated 2017).
# Target: IRAK4 (Homo sapiens (Human), UniProt Q9NWZ3)
# Experiment: Determination of IRAK4 kinase activity (IMAP fluorescence polarization, phosphorylation of fluorescent peptide substrate)
# Format: biochemical
# Settings: 0.5 nM GST tagged IRAK4, 100 nM peptide substrate RP7030, 100 μM ATP, 30 minutes at 25° C.
# Protocol: The kinase activity of IRAK4 is determined by its ability to catalyze the phosphorylation of a fluorescent polypeptide substrate. The extent of phosphorylation is measured using IMAP technology (Molecular Devices) where the phosphorylated fluorescent substrate binds to the large M(III)-based nanoparticles which reduces the rotational speed of the substrate and thus increases its fluorescent polarization (FP).
# Procedure: A 20 μl reaction mixture contains 10 mM TriHCl, pH 7.2, 0.5 nM GST tagged IRAK4 (SignalChem), 100 nM fluorescent peptide substrate (RP7030, Molecular Devices), 100 μM ATP, 1 mM DTT, 1 mM MgCl2, and 0.01% Tween 20. The reaction is initiated by the addition of ATP. After incubation for 30 minutes at 25° C., 60 μl of Progressive IMAP Reagent (Molecular Devices) is added to stop the reaction. Change in RP7030's FP is determined by a FP reader (Analyst HT, LJL BioSystems). Analytical LCMS Conditions: • Condition A: Phenomenex Luna C18 (4.6×250 mm), 95:5 to 5:95 water:MeCN (0.05% TFA), over 10 min, hold 6 min. • Condition B: Agilent SBC (3.0×50 mm), solvent A: H20-0.1% TFA; • solvent B: ACN-0.1% TFA; GRADIENT TABLE: 0 min:10% B, 0.3 min: 10% B, 1.5 min: 95% B, 2.70 min: 95% B, 2.76 min: 10% B, stop time 3.60 min.
# IRAK4, sequence (Q9NWZ3 whole entry): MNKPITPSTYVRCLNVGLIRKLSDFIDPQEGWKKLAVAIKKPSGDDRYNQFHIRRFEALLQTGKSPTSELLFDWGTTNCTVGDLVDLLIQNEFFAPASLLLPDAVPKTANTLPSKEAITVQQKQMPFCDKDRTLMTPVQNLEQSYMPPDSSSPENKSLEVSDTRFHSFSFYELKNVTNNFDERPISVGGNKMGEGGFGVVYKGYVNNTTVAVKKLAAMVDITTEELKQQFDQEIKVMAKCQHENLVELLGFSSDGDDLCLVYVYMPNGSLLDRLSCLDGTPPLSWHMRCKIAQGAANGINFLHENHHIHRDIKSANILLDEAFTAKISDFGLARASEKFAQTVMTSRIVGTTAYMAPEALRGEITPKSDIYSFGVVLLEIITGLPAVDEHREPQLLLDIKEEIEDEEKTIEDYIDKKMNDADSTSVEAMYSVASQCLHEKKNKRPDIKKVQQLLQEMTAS
row,Compound,IC50 [nM]
1,"NC(=O)c1cccc(Nc2ncc(-c3nc4ccccc4s3)c(N[C@@H]3C[C@H](CO)[C@@H](O)[C@H]3O)n2)c1 [Example 27, 3-((5-(benzo[d]thiazol-2-yl)-4-(((1R,2S,3R,4R)-2,3-dihydroxy-4-(hydroxymethyl)cyclopentyl)amino)pyrimidin-2-yl)amino)benzamide]",5.3
2,"NC(=O)Cc1ccc(Nc2ncc(-c3nc4ccccc4s3)c(N[C@@H]3C[C@H](CO)[C@@H](O)[C@H]3O)n2)cc1 [Example 29, 2-(4-((5-(benzo[d]thiazol-2-yl)-4-(((1R,2S,3R,4R)-2,3-dihydroxy-4-(hydroxymethyl)cyclopentyl)amino)pyrimidin-2-yl)amino)phenyl)acetamide]",10
3,"OC[C@H]1C[C@@H](Nc2nc(Nc3ccncc3F)ncc2-c2nc3ccccc3s2)[C@H](O)[C@@H]1O [Example 30, (1R,2S,3R,5R)-3-((5-(benzo[d]thiazol-2-yl)-2-((3-fluoropyridin-4-yl)amino)pyrimidin-4-yl)amino)-5-(hydroxymethyl)cyclopentane-1,2-diol]",44
4,"Cc1cc(Nc2ncc(-c3nc4ccccc4s3)c(N[C@@H]3C[C@H](CO)[C@@H](O)[C@H]3O)n2)ccn1 [Example 31, (1R,2S,3R,5R)-3-((5-(benzo[d]thiazol-2-yl)-2-((2-methylpyridin-4-yl)amino)pyrimidin-4-yl)amino)-5-(hydroxymethyl)cyclopentane-1,2-diol]",1.2
5,"OC[C@H]1C[C@@H](Nc2nc(NC3CCCC3)ncc2-c2nc3ccccc3s2)[C@H](O)[C@@H]1O [Example 33, (1R,2S,3R,5R)-3-((5-(benzo[d]thiazol-2-yl)-2-(cyclopentylamino)pyrimidin-4-yl)amino)-5-(hydroxymethyl)cyclopentane-1,2-diol]",496
6,"CN(C)c1ccc(Nc2ncc(-c3nc4ccccc4s3)c(N[C@@H]3C[C@H](CO)[C@@H](O)[C@H]3O)n2)cc1 [Example 34, (1R,2S,3R,5R)-3-((5-(benzo[d]thiazol-2-yl)-2-((4-(dimethylamino)phenyl)amino)pyrimidin-4-yl)amino)-5-(hydroxymethyl)cyclopentane-1,2-diol]",12
7,"Cc1cc(C)cc(Nc2ncc(-c3nc4ccccc4s3)c(N[C@@H]3C[C@H](CO)[C@@H](O)[C@H]3O)n2)c1 [Example 35, (1R,2S,3R,5R)-3-((5-(benzo[d]thiazol-2-yl)-2-((3,5-dimethylphenyl)amino)pyrimidin-4-yl)amino)-5-(hydroxymethyl)cyclopentane-1,2-diol]",10
8,"COc1cccc([C@@H](C)Nc2ncc(-c3nc4ccccc4s3)c(N[C@@H]3C[C@H](CO)[C@@H](O)[C@H]3O)n2)c1 [Example 36, (1R,2S,3R,5R)-3-((5-(benzo[d]thiazol-2-yl)-2-(((R)-1-(3-methoxyphenyl)ethyl)amino)pyrimidin-4-yl)amino)-5-(hydroxymethyl)cyclopentane-1,2-diol]",470
9,"OC[C@H]1C[C@@H](Nc2nc(Nc3cccnc3)ncc2-c2nc3ccccc3s2)[C@H](O)[C@@H]1O [Example 37, (1R,2S,3R,5R)-3-((5-(benzo[d]thiazol-2-yl)-2-(pyridin-3-ylamino)pyrimidin-4-yl)amino)-5-(hydroxymethyl)cyclopentane-1,2-diol]",10
10,"CN(C)c1cccc(Nc2ncc(-c3nc4ccccc4s3)c(N[C@@H]3C[C@H](CO)[C@@H](O)[C@H]3O)n2)c1 [Example 39, (1R,2S,3R,5R)-3-((5-(benzo[d]thiazol-2-yl)-2-((3-(dimethylamino)phenyl)amino)pyrimidin-4-yl)amino)-5-(hydroxymethyl)cyclopentane-1,2-diol]",8.9
11,"CN1CCN(c2cccc(Nc3ncc(-c4nc5ccccc5s4)c(N[C@@H]4C[C@H](CO)[C@@H](O)[C@H]4O)n3)c2)CC1 [Example 45, (1R,2S,3R,5R)-3-((5-(benzo[d]thiazol-2-yl)-2-((3-(4-methylpiperazin-1-yl)phenyl)amino)pyrimidin-4-yl)amino)-5-(hydroxymethyl)cyclopentane-1,2-diol]",2.6
12,"Nc1ncc(-c2cc3ccccc3s2)c(N[C@@H]2C[C@H](CO)[C@@H](O)[C@H]2O)n1 [Example 46, (1R,2S,3R,5R)-3-((2-amino-5-(benzo[b]thiophen-2-yl)pyrimidin-4-yl)amino)-5-(hydroxymethyl)cyclopentane-1,2-diol]",1610
13,"OC[C@H]1C[C@@H](Nc2nc(Nc3ccc4[nH]ncc4c3)ncc2-c2nc3ccccc3s2)[C@H](O)[C@@H]1O [Example 50, (1R,2S,3R,5R)-3-((2-((1H-indazol-5-yl)amino)-5-(benzo[d]thiazol-2-yl)pyrimidin-4-yl)amino)-5-(hydroxymethyl)cyclopentane-1,2-diol]",6.5

# More lines, now with the values ahead:
row,IC50 [nM],Compound
1,16,"Nc1ncc(-c2nc3ccncc3s2)c(N[C@@H]2C[C@H](CO)[C@@H](O)[C@H]2O)n1 [Example 21, (1R,2S,3R,5R)-3-((2-amino-5-(thiazolo[5,4-c]pyridin-2-yl)pyrimidin-4-yl)amino)-5-(hydroxymethyl)cyclopentane-1,2-diol]"
2,1240,"OC[C@H]1C[C@@H](Nc2nc(Nc3ccccc3O)ncc2-c2nc3ccccc3s2)[C@H](O)[C@@H]1O [Example 22, (1R,2S,3R,5R)-3-((5-(benzo[d]thiazol-2-yl)-2-((2-hydroxyphenyl)amino)pyrimidin-4-yl)amino)-5-(hydroxymethyl)cyclopentane-1,2-diol]"
3,20,"OC[C@H]1C[C@@H](Nc2nc(Nc3ccc4[nH]ccc4c3)ncc2-c2nc3ccccc3s2)[C@H](O)[C@@H]1O [Example 23, (1R,2S,3R,5R)-3-((2-((1H-indol-5-yl)amino)-5-(benzo[d]thiazol-2-yl)pyrimidin-4-yl)amino)-5-(hydroxymethyl)cyclopentane-1,2-diol]"
4,22,"OC[C@H]1C[C@@H](Nc2nc(Nc3ccc4cc[nH]c4c3)ncc2-c2nc3ccccc3s2)[C@H](O)[C@@H]1O [Example 24, (1R,2S,3R,5R)-3-((2-((1H-indol-6-yl)amino)-5-(benzo[d]thiazol-2-yl)pyrimidin-4-yl)amino)-5-(hydroxymethyl)cyclopentane-1,2-diol]"
5,34,"OC[C@H]1C[C@@H](Nc2nc(Nc3ccncn3)ncc2-c2nc3ccccc3s2)[C@H](O)[C@@H]1O [Example 25, (1R,2S,3R,5R)-3-((5-(benzo[d]thiazol-2-yl)-2-(pyrimidin-4-ylamino)pyrimidin-4-yl)amino)-5-(hydroxymethyl)cyclopentane-1,2-diol]"
6,4.8,"OC[C@H]1C[C@@H](Nc2nc(Nc3cncnc3)ncc2-c2nc3ccccc3s2)[C@H](O)[C@@H]1O [Example 26, (1R,2S,3R,5R)-3-((5-(benzo[d]thiazol-2-yl)-2-(pyrimidin-5-ylamino)pyrimidin-4-yl)amino)-5-(hydroxymethyl)cyclopentane-1,2-diol]"
7,623,"Nc1ncc(-c2ccccn2)c(N[C@@H]2C[C@H](CO)[C@@H](O)[C@H]2O)n1 [Example 38, (1R,2S,3R,5R)-3-((2-amino-5-(pyridin-2-yl)pyrimidin-4-yl)amino)-5-(hydroxymethyl)cyclopentane-1,2-diol]"
8,64,"Cc1cc(Nc2ncc(-c3cncs3)c(N[C@@H]3C[C@H](CO)[C@@H](O)[C@H]3O)n2)cc(C)n1 [Example 40, (1R,2S,3R,5R)-3-((2-((2,6-dimethylpyridin-4-yl)amino)-5-(thiazol-5-yl)pyrimidin-4-yl)amino)-5-(hydroxymethyl)cyclopentane-1,2-diol]"
9,7.9,"Cc1cc(Nc2ncc(-c3cscn3)c(N[C@@H]3C[C@H](CO)[C@@H](O)[C@H]3O)n2)cc(C)n1 [Example 41, (1R,2S,3R,5R)-3-((2-((2,6-dimethylpyridin-4-yl)amino)-5-(thiazol-4-yl)pyrimidin-4-yl)amino)-5-(hydroxymethyl)cyclopentane-1,2-diol]"
10,552,"OC[C@H]1C[C@@H](Nc2nc(Nc3ccc(OC(F)(F)F)cc3)ncc2-c2nc3ccccc3s2)[C@H](O)[C@@H]1O [Example 42, (1R,2S,3R,5R)-3-((5-(benzo[d]thiazol-2-yl)-2-((4-(trifluoromethoxy)phenyl)amino)pyrimidin-4-yl)amino)-5-(hydroxymethyl)cyclopentane-1,2-diol]"
11,8.2,"COc1ccc(Nc2ncc(-c3nc4ccccc4s3)c(N[C@@H]3C[C@H](CO)[C@@H](O)[C@H]3O)n2)cn1 [Example 43, (1R,2S,3R,5R)-3-((5-(benzo[d]thiazol-2-yl)-2-((6-methoxypyridin-3-yl)amino)pyrimidin-4-yl)amino)-5-(hydroxymethyl)cyclopentane-1,2-diol]"
12,3,"CN1CCN(c2ccc(Nc3ncc(-c4nc5ccccc5s4)c(N[C@@H]4C[C@H](CO)[C@@H](O)[C@H]4O)n3)cc2)CC1 [Example 44, (1R,2S,3R,5R)-3-((5-(benzo[d]thiazol-2-yl)-2-((4-(4-methylpiperazin-1-yl)phenyl)amino)pyrimidin-4-yl)amino)-5-(hydroxymethyl)cyclopentane-1,2-diol]"
13,687,"OC[C@H]1C[C@@H](Nc2nc(NC3CCNCC3)ncc2-c2nc3ccccc3s2)[C@H](O)[C@@H]1O [Example 52, (1R,2S,3R,5R)-3-((5-(benzo[d]thiazol-2-yl)-2-(piperidin-4-ylamino)pyrimidin-4-yl)amino)-5-(hydroxymethyl)cyclopentane-1,2-diol]"
